Results from US9938258B2 (Karyopharm Therapeutics Inc., priority 2012, dated 2018).

Assays:
MS751 cells = assay: MTT cell proliferation assay, MS751; format: cell-based, human; details: Homo sapiens, MS751, MS751 cells; eight concentrations 1 nM to 30 μM; incubation approximately 64-72 hours; read-out: MTT Assay IC50, MS751
Method in brief: (§1)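 Cells were seeded at 5,000-10,000 per well, left to attach overnight, then exposed to eight compound concentrations from 1 nM to 30 μM. After about 4 h with MTT, solubilized formazan was read at 490 nm and percent inhibition versus negative control was calculated.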

Z138 cells = assay: MTT cell proliferation assay, Z138; format: cell-based; details: Homo sapiens, Z-138, Z138 cells; eight concentrations 1 nM to 30 μM; incubation approximately 64-72 hours; read-out: MTT Assay IC50, Z138
Method in brief: as §1

3T3 cells = assay: MTT cell proliferation assay, 3T3; format: cell-based, mouse; details: Mus musculus, NIH3T3, 3T3 cells; eight concentrations 1 nM to 30 μM; incubation approximately 64-72 hours; read-out: MTT Assay IC50, 3T3
Method in brief: as §1

[1] = tested on: MDA-MB-468 (triple negative breast) cancer xenograft; assay: MDA-MB-468 mouse xenograft model; format: in vivo, CB-17 SCID mice; details: 30 mg/kg QDx5 or 15 mg/kg QDx5 PO for 9 weeks; SCID mice with MDA-MB-468 tumors; versus vehicle
Procedure: The oncological impact of Compound 116 was tested using a MDA-MB-468 (triple negative breast) cancer xenograft model in CB-17 SCID mice. MDA-MB-468 (ATCC # HTB-102) breast adenocarcinoma cells were obtained from ATCC. These cells were grown in high glucose DMEM medium supplemented with 10% fetal bovine serum, 1% penicillin and streptomycin, and 2 mM L-glutamine. Cells were sub-cultured by dilution at a ratio of 1:4. MDA-MB-468 cells were harvested by trypsinization and counted using a hemocytometer. Cells were resuspended in PBS at a concentration of 4×10^8 cells per mL. Cells were placed on ice and mixed with an equal volume of Matrigel (BD Biosciences CB-40234). This mixture was kept on ice and injected into the left flank of mice in a volume of 0.2 mL, equivalent to 4×10^7 cells per mouse. When the tumors reached a mean size of between 100 and 200 mm^3, mice were randomly and prospectively divided. Tumor bearing mice were treated with vehicle or Compound 116 on M-F (QDx5/week) for 9 weeks. Compound 116 was administered orally (PO) at initial doses of 15 and 30 mg/kg five times a week. Animals' weights and condition were recorded daily, tumors were measured once every two days with micro-calipers, and tumor volume was calculated as (length×width×width)/2.

## CC(=O)c1ccc(-c2cc(Cl)c3c(c2)CC(CNC(=O)/C=C/c2ccc(N)nc2)O3)s1 (stereo not shown) [Compound 116, (E)-N-((5-(5-acetylthiophen-2-yl)-7-chloro-2,3-dihydrobenzofuran-2-yl)methyl)-3-(6-aminopyridin-3-yl)acrylamide]
MS751 cells
  IC50: 0.1 to 5 µM
Z138 cells
  IC50: 0.1 to 5 µM
3T3 cells
  IC50: 5 to 30 µM
[1]
  mean tumor volume: reduced
